Reference: patent US12564622B2, “Preventing cytokine release syndrome” (priority 2017, dated 2026)
Values joined by “and” are separate entries in the source; they are usually repeats but may differ in a detail not shown here. Equal entries are not always repeated.

How the values were obtained:
[1] = test system: C. novyi-NT therapy-induced toxicity in mice bearing large subcutaneous CT26 tumors; experiment: C. novyi-NT therapy of large subcutaneous CT26 tumors (therapy-induced toxicity); type: in vivo, mouse (BALB/c); conditions: CT26 tumor-bearing mice injected with parental C. novyi-NT spores, with the indicated agent
Method: ANP concentrations in the supernatant of ANP-C. novyi-NT culture and in mouse plasma were measured by an Elisa kit from Ray Biotech (EIAR-ANP-1) that recognizes both human and mouse ANP. ANP in the supernatant of ANP-C. novyi-NT culture were shown biological activities as described elsewhere (Lofton et al., 1990 Biochem. Biophys. Res. Comm., 172:793-9). Briefly, bacterial supernatants were applied to cultured bovine aortic endothelial cells (BAOEC, Cell Applications Inc.) for 3 minutes. cGMP concentrations were then measured in BAOEC lysates by the Direct cGMP Elisa Kit from Enzo following the manufacture's instruction.
The colon cancer cell line CT26 was injected subcutaneously into the right flank of six to eight week old female Balb/C mice as described elsewhere (Qiao et al., 2011 Oncotarget, 2:59-68). Tumor sizes were measured with a caliper and calculated as ½*L*W*H as described elsewhere (Tomayko et al., 1989 Can. Chemother. Pharmacol., 24:148-54). When tumors reached 600-900 mm^3 after about two weeks, 12×10^6 spores of C. novyi-NT or ANP-C. novyi-NT at 3×10^6/μl were injected intratumorally into 4 central parts of the tumor with a 32 G Hamilton syringe needle. The bacteria typical germinated in the tumors within 24 hours, turning them necrotic. Hydration of the mice was supported by daily subcutaneous injections of […] saline. Human ANP (Sigma) was dissolved in saline, loaded in mini-osmotic pumps (ALZET) with a release rate of 12 μg/day and implanted subcutaneously in the back of mice 12 hours before the spore injection. Pumps loaded with saline served as controls. Metyrosine was dissolved in PBS and injected IP at 60 mg/kg/day for three days before the C. novyi injection to deplete catecholamines in storage. Two hours after the spore injection, 60 mg/kg of metyrosine was injected intraperitoneally (IP). For each of the next three days, IP injections of metyrosine at 30 mg/kg were administered. Control groups were injected with PBS at the same time points.
Blood samples were collected into tubes containing 5 mM EDTA and 4 mM sodium metabisulfite after puncturing the facial vein or (terminally) by cardiac puncture. Subsequently, the samples were centrifuged and the plasmas were stored at −80° C. prior to analysis. Catecholamines (dopamine, norepinephrine and epinephrine) were measured using the 3-CAT Research ELISA kit from Labor Diagnostika Nord GmbH/Rocky Mountain Diagnostics. Cytokines were measured using Luminex assays based on Millipore Mouse and Human Cytokine/Chemokine panels.
ANP concentrations in the supernatant of ANP-C. novyi-642 NT culture and in mouse plasma were measured with an Elisa kit from Ray Biotech (EIAR-ANP-1) that recognizes both human and mouse ANP. […] Briefly, bacterial supernatants were applied to cultured bovine aortic endothelial cells (BAOEC, Cell Applications Inc.) for 3 minutes. cGMP concentrations were then measured in BAOEC lysates by the Direct cGMP Elisa Kit from Enzo following the manufacture's instruction.
The colon cancer cell line CT26 was injected subcutaneously into the right flank of six to eight weeks old female Balb/C mice as described elsewhere (see, e.g., Qiao et al. 2011 Oncotarget 2:59-68). Tumor sizes were measured with a caliper and calculated as ½*L*W*H as described elsewhere (see, e.g., Tomayko et al. 1989 Cancer Chemother Pharmacol 24:148-154). When tumors reached 600-900 mm^3 after about two weeks, 12×10^6 spores of C. novyi-NT or ANP-C. novyi-NT at 3×10^6/μl were injected intratumorally into 4 central parts of the tumor with a 32 G Hamilton syringe needle. The bacteria typical germinated in the tumors within 24 hours, turning them necrotic. Hydration of the mice was supported by daily subcutaneous injections of 500 μl saline. Human ANP (Sigma) was dissolved in saline, loaded in mini-osmotic pumps (ALZET) with a release rate of 12 μg/day and implanted subcutaneously in the back of mice 12 hours before the spore injection. Pumps loaded with saline served as controls. […]

[2] = test system: co-culture of hCART19 and Raji cells; experiment: In vitro co-culture of Raji and hCART19 cells; type: cell-based, human; conditions: co-culture stimulated with epinephrine 15 ng/ml; CHX 10 μg/ml
Excerpt: Human CD19scFv-CD28-4-1BB-CD3ζ CAR-T cells (PM-CAR1003) were purchased from Promab Biotechnologies and maintained less than 7 days in AIM-V medium (GIBCO) supplemented with 300 IU/ml of hIL2 (Peprotech), 5% FBS and antibiotics (Car-T medium).

LPS-injected BALB/c mice = type: in vivo, mouse (BALB/c); conditions: for mortality: LPS-treated mice, adrenoceptor blockers (α1, α2, β1, β2); for disease course (mortality, catecholamines, IL-6, TNF-α, MIP-2, KC) versus LPS only: catecholamine by subcutaneous osmotic pump plus sublethal dose of LPS
Method: LPS from Escherichia coli 0111:B4 was formulated as a 10 mg/ml solution in water and stored in −80° C. LPS was injected intraperitoneally at a dose of 3.5 mg/kg. […] Human ANP (Sigma) was dissolved in saline, loaded in mini-osmotic pumps (ALZET) with a release rate of 12 μg/day and implanted subcutaneously in the back of mice 12 hours before the LPS injection. Mice implanted with pumps loaded with saline served as controls. […] […] The control groups were injected with PBS. […] Hydration of mice was supported by daily subcutaneous injection of 0.5 ml saline.
LPS from Escherichia coli 0111:B4 was formulated as a 10 mg/ml solution in water and stored in −80° C. In Balb/C mice, LPS was injected intraperitoneally at a lethal dose of 3.5 mg/kg. […] In experiments with catecholamine pumps, a sublethal dose with 15-35% death rate was optimized in Balb/C mice. In TH+/+ and TH^ΔLysM mice with C57BL/6 background, a lethal dose was optimized at 5 mg/kg. Human ANP (Sigma) was dissolved in saline, loaded in mini-osmotic pumps (ALZET) with a release rate of 12 μg/day and implanted subcutaneously in the back of mice 12 hours before the LPS injection. Mice implanted with pumps loaded with saline served as controls. Metyrosine was freshly dissolved in PBS and injected IP at the indicated doses for three days prior to the LPS treatment. One hour before the LPS injection, metyrosine was injected into the lower abdomen contralateral to the side of LPS injection. The control groups were injected with PBS. For the following 3 days, metyrosine was injected IP at reduced indicated doses. Hydration of mice was supported by daily subcutaneous injection of 0.5 ml saline.

[3] = incubation in media for 24 hours at 37° C.
[4] = test system: polymicrobial peritoneal sepsis induced by CLP; experiment: Cecal ligation and puncture (CLP) sepsis; type: in vivo, mouse (C57BL/6); conditions: antibiotic alone, from 20 hours after CLP
Method: (§1) Cecal ligation and puncture (CLP) was performed as described elsewhere (Rittirsch et al., 2009 Nature Protocols, 4:31-6). Briefly, six-to-eight week old female C57BL/6 mice were anesthetized and following abdominal incision, the cecum was ligated at about 14 the distance from the luminal entry to its tip. The ligated cecum was punctured through and through with a 22 G needle at ½ and ¾ the distance from the luminal entry to its tip. A small amount of the cecal content was gently pushed out of the four openings into the peritoneum. Subsequently, the abdominal muscles were sutured and the skin was closed with two staples. Five hundred microliters of saline were immediately injected subcutaneously to the mice. For the groups treated with antibiotics, imipenem (Sigma) was injected subcutaneously at 25 mg/kg starting from 20 hours after CLP, with a schedule of twice a day on day one and once a day thereafter for 10 days. Human ANP (Sigma) was dissolved in saline, loaded in mini-osmotic pumps (ALZET) with a release rate of 12 μg/day and implanted subcutaneously in the back of mice 12 hours before the CLP, with pumps loaded with saline serving as controls. Metyrosine was freshly dissolved in PBS and injected IP at 60 mg/kg/day for three days before the CLP. Twenty minutes before the CLP, metyrosine was injected at 60 mg/kg IP into the right side. The control groups were injected with PBS. For the following 4 days, metyrosine was injected at 30 mg/kg/day IP into the right side. Hydration of mice was supported by daily subcutaneous injection of 0.5 ml saline.
as §1, with “CLP” for “Cecal ligation and puncture (CLP)”, “(see, e.g., Rittirsch” for “(Rittirsch”, “2008 Rev Immunol 8:776-787).” for “2009 Nature Protocols, 4:31-6).”, “6-8 weeks” for “six-to-eight week”, “¼” for “14”, “days.” for “days. Human ANP (Sigma) was dissolved in saline, loaded in mini-osmotic pumps (ALZET) with a release rate of 12 μg/day and implanted subcutaneously in the back of mice 12 hours before the CLP, with pumps loaded with saline serving as controls.”

SMILES: Cc1ccc2nc(NCCN)c3ncc(C)n3c2c1 [BMS-345541]
- effect on survival (words) [1]: no significant improvement in survival
- effect on survival (words) ([1]; listed as BMS345541): did not improve survival

SMILES: C[C@@H]1C[C@@H]([C@H](O)CC2CC(=O)NC(=O)C2)C(=O)[C@@H](C)C1 [CHX, Cycloheximide]
- increase of catecholamines and cytokines (TNF-α, MIP-1α, IFN-γ, GM-CSF) [2]: greatly suppressed

SMILES: Cc1ccc(OCC(O)C(C)NC(C)C)c2c1CCC2 (stereo not shown) [ICI 118551]
- mortality (LPS-injected BALB/c mice): did not reduce mortality

SMILES: COC1(C2=NCCN2)COc2ccccc2O1 (stereo not shown) [RX 821002]
- mortality (LPS-injected BALB/c mice): did not reduce mortality

SMILES: NCCc1ccc(O)c(O)c1 [dopamine]
- disease course (mortality, catecholamines, IL-6, TNF-α, MIP-2, KC) versus LPS only (LPS-injected BALB/c mice): absent

SMILES: CNC[C@H](O)c1ccc(O)c(O)c1 [epinephrine, (−)-epinephrine]
- disease course (mortality, catecholamines, IL-6, TNF-α, MIP-2, KC) versus LPS only (LPS-injected BALB/c mice): earlier onset and exacerbated disease course
- animal survival (LPS-injected BALB/c mice; mouse, in vivo): no effect on animal survival
- cytokine release (LPS-injected BALB/c mice; mouse, in vivo): moderately stimulate cytokine release
- stability in media [3]: all detectable epinephrine was degraded

SMILES: C[C@@H](O)[C@H]1C(=O)N2C(C(=O)O)=C(SCCN=CN)C[C@H]12 [imipenem]
- mice that died after CLP [4]: 88% and > 90%

SMILES: COCCc1ccc(OCC(O)CNC(C)C)cc1 (stereo not shown) [metoprolol]
- mortality (LPS-injected BALB/c mice): did not reduce mortality

SMILES: Cc1ncc([N+](=O)[O-])n1CCO [metronidazole]
- effect on survival (words) [1]: did not protect animals from sepsis

SMILES: NC[C@H](O)c1ccc(O)c(O)c1 [norepinephrine]
- disease course (mortality, catecholamines, IL-6, TNF-α, MIP-2, KC) versus LPS only (LPS-injected BALB/c mice): less pronounced

SMILES: COc1cc2nc(N3CCN(C(=O)c4ccco4)CC3)nc(N)c2cc1OC [prazosin]
- production of catecholamines and cytokines (LPS-injected BALB/c mice; 24 hours after LPS, α1 blockade): suppressed the production of catecholamines and cytokines
- mortality (LPS-injected BALB/c mice): substantially reduced mortality
